Values joined by “and” are separate entries in the source; they are usually repeats but may differ in a detail not shown here. Identical values can stand only once.
Legend:
Design in all cases: species or system bovine
[1] = Experiment 3: surface microhardness recovery of demineralised enamel, aspartic acid combined with different calcium sources; details: single treatment 16 hours at 37°C, solutions pH 6 to 6.5 (excluding controls), n=10
Method: Enamel blocks were sectioned from bovine teeth, lapped plane-parallel, and highly polished. The baseline surface microhardness of the enamel samples was measured. The samples were then stratified between the treatment groups based on the baseline surface microhardness values.
(§1) The enamel samples were artificially demineralised by immersing them in a demineralisation solution for 60 minutes. Following demineralisation, the surface microhardness of the enamel samples was remeasured.
(§2) The enamel samples in each treatment group were treated with the assigned test products for 16 hours. Following treatment, the surface microhardness of each treated enamel sample was remeasured.
(§3) The percentage of surface microhardness recovery (%SMHR) achieved by the test products was calculated and used to compare the ability of the test products to repair the demineralised enamel samples.
The pH of each solution was adjusted into the pH range of pH 6 to 6.5, using sodium hydroxide or dilute hydrochloric acid (Excluding the positive and negative control). All pH measurements were taken with a calibrated pH electrode (Serial Number: VT1 8048) and an Accumet XI,250 ion meter (Asset Number: UK01200-LAB-15-002).
Approximately 130 enamel blocks (Measuring 4mm x 4mm) were sectioned from bovine incisors and were lapped plano-parallel (both sides) using a Logitech PM5 lapping machine (Asset number: 4F008).
(§4) The enamel surfaces of the samples were machine-polished with 1 micron and 0.3 micron aluminium oxide slurries, using a MetPrep Saphir 550 Polisher (Asset Number: UK01200-1010015-114).
(§5) The surface microhardness of each block was measured at the following time points: • At baseline. • After the demineralisation treatment. • After overnight treatment.
(§6) The surface microhardness of the enamel samples was measured using a Buehler MicroMet 5103 (Asset Number: 4F101) and OmniMet MHT software.
(§7) The Intertek CRS method for measuring the surface microhardness of the samples at each time point has been provided below: • Five Knoop indents • 50 gram load force • 10 second dwell time • X50 objective
(§8) A demineralisation solution was prepared that contained: • ▪ 50 mM Acetic acid • ▪ 2.2 mM Calcium nitrate • ▪ 2.2 mM Potassium phosphate monobasic • ▪ 0.1 ppm Sodium fluoride
The pH of the solution was adjusted to pH 4.5. All pH measurements were taken with a calibrated pH electrode (Serial Number: VT1 8048) and an Accumet XI,250 ion meter (Asset Number: UK01200-LAB-15-002.
The enamel blocks were demineralised by placing the samples into a Sterilin containing 8mL of demineralisation solution per sample. All demineralisation exposures were performed for 60 minutes, in an oven set to 37°C for 60 minutes.
The enamel samples were placed into their assigned test solutions for 16 hours at 37°C, whilst being agitated with a magnetic stirrer. Aquasil Putty was used to attach the 10 enamel blocks in each treatment group to a sample holder with the enamel surfaces of the samples exposed.
Following the removal of the samples from the test product, each enamel block was rinsed with deionised water for 1-2 minutes and sonicated for 10 minutes to remove any loose debris. The enamel samples were then returned to their original containers.
The ability of the test formulations to repair the demineralised enamel samples after a single treatment was assessed by calculating the percentage of surface microhardness recovery values (%SMHR) achieved by each test product.
The formula for calculating the %SMHR values achieved by each treatment is shown below: % SMRH = 100∗[(SMHPost-treatment−SMHPost-demineralisation)/(SMH; Baseline−SMH Post-demineralisation)] [formula]

[2] = Summary of 3 experiments in comparison with negative and positive controls; details: Water (Negative control) 0 units; for Comparison: units better than negative control / Comparison: units worser than negative control / Comparison: units better than fluoride: scale: Fluoride (Positive control) 100 units
From the text: Table 10. Summary of 3 experiments in comparison with negative and positive controls

[3] = Experiment 2: surface microhardness recovery of demineralised enamel, aspartic acid with or without tricalcium phosphate; details: single treatment 16 hours at 37°C, solutions pH 6-6.5, n=10
Method: Enamel blocks were sectioned from bovine teeth, lapped plano-parallel and highly polished. The baseline surface microhardness of the enamel samples was then measured.
as §1, with “in” for “in a”, “remeasured. The samples were then stratified between the treatment groups based upon the baseline surface microhardness.” for “remeasured.”
as §2, §3
The pH of each solution was adjusted into the pH range shown in Table 2, using sodium hydroxide or dilute hydrochloric acid. All pH measurements were taken with a calibrated pH electrode (Serial Number: 13-620-631) and either an Accumet XI,250 ion meter (Asset Number: UK01200-LAB-15-002), or an Orion 720 ion meter (Asset Number: 4F064).
Approximately 90 enamel blocks (Measuring 4mm x 4mm) were sectioned from bovine incisors and were lapped plano-parallel (both sides) using a Logitech PM5 lapping machine (Asset number: 4F008).
as §4, §5, §6, §7, §8
The pH of the solution was adjusted to pH 4.5. All pH measurements were taken with a calibrated pH electrode (Serial Number: 13-620-631) and either an Accumet XI,250 ion meter (Asset Number: UK01200-LAB-15-002), or an Orion 720 ion meter (Asset Number: 4F064). […]
The ability of the test formulations to repair the demineralised enamel samples after a single treatment was assessed by calculating the percentage of surface microhardness recovery values (%SMHR) achieved by each test product. […]

[4] = Experiment 1: remineralization of demineralised enamel, surface microhardness (SMH) after single overnight treatment with calcium sources; details: single overnight immersion 16 hours, 37°C; for Mean (%SMR): percentage surface microhardness recovery
Method: This in vitro study was designed to compare the remineralization efficacy of the test products, following a single, overnight treatment application.
Bovine enamel blocks were sectioned, machine polished and flattened. The baseline surface microhardness of the enamel samples was measured with a Buehler MicroMet 5103 surface microhardness machine.
Each bovine enamel block was demineralised for 1 hour by immersing the sample at 37°C, in a demineralization solution described by Huang et. al. (2009)^1. Following demineralization, the surface microhardness of each enamel sample was remeasured.
All demineralized enamel samples were subjected to an overnight immersion in the assigned test product, with immersion solutions mixed and heated to 37°C during treatment. Following the overnight immersion, the surface microhardness of the enamel samples was remeasured. The study logistics were designed so that each enamel sample was demineralized and then immersed in the assigned treatment on the same day.
The ability of a single, overnight application of test products and controls to repair enamel lesions was assessed by comparing the percentage surface microhardness recoveries and the changes in surface microhardness for the treated samples.
One hundred and thirty enamel blocks, measuring 4 x 4 mm, were cut from bovine incisors and lapped planar-parallel using a Logitech PM5 lapping machine. The enamel surfaces of the samples were machine-polished using a MetPrep Saphir 550 to a final finish of 0.04 microns. One corner of each block was removed in order to ensure correct orientation on the SMH machine.
The baseline surface microhardness of the enamel samples was measured using a calibrated Buehler MicroMet 5103 microhardness indenter and Knoop diamond indenter tip.
The enamel samples were orientated with the abraded corner in the top right. Baseline surface microhardness indents were placed in the centre of the enamel samples. Five Knoop indents were placed in a vertical line at each timepoint (under a load of 50 g for 10 seconds). Surface imperfections were avoided, and outlying indents replaced.
A demineralization solution was prepared according to the following specifications: • ▪ 50 mM Acetic acid • ▪ 2.2 mM Calcium nitrate • ▪ 2.2 mM Potassium phosphate monobasic • ▪ 0.1 ppm Sodium fluoride • ▪ Final pH of the solution was adjusted to 4.5 with sodium hydroxide.
Enamel samples were mounted onto acetate squares using double-sided tape. Enamel samples were immersed in 8 ml demineralization solution per sample and placed into an oven for 1 hour (37 °C). […]
The post-demineralization surface microhardness of the enamel samples was measured using a calibrated Buehler MicroMet 5103 microhardness indenter and Knoop diamond indenter tip. […]

N[C@@H](CC(=O)O)C(=O)O [Aspartic acid 0.05 %, Aspartic acid]
Mean %SMHR Value [1]: -35.13% | Comparison: units better than negative control ([2]; listed as 0,05% Aspartic acid): for 17 units better than negative control

N[C@@H](CC(=O)O)C(=O)O [Aspartic Acid 0.1 %, L-Aspartic Acid]
Comparison: units better than negative control [2]: for 65 units better than negative control | Mean %SMHR [3]: 3.19%

N[C@@H](CC(=O)O)C(=O)O [Aspartic acid 0.2 % in distilled water, Aspartic acid]
Mean %SMHR Value [1]: -87.69% | Mean %SMHR Value ([1]; listed as 0.2% Aspartic acid): -88% | Comparison: units worser than negative control [2]: for 70 units worser than negative control

N[C@@H](CC(=O)O)C(=O)O [Aspartic Acid 0.5 %, L-Aspartic Acid]
Comparison: units better than negative control ([2]; listed as Aspartic acid 0,5% in distilled water): for 90 units better than negative control | Mean %SMHR [3]: -37% and -37.32%

[F-].[Na+] [1450 ppm F, Sodium Fluoride, reference compound]
Mean %SMHR Value [1]: 5.15% | Comparison: units ([2]; position on the scale): 100 units | Mean (%SMR) ([4]; n = 10): 35.5556% | Mean (%SMR) ([4]; n = 10, listed as 1450 ppm Fluoride control): 36% | Mean Change in SMH ([4]; post-treatment SMH minus demineralisation SMH (Knoop), n = 10): 25.12 | mean SMH increase ([4]; rounded values in the text): 25 HK units | Mean %SMHR [3]: 14% | Mean %SMHR ([3]; listed as 1450 ppm Fluoride (Positive control)): 14.12%

N[C@@H](CC(=O)O)C(=O)O [Aspartic acid 0,2% in artificial saliva, Aspartic acid]
Mean %SMHR Value [1]: 16,21% | Comparison: units better than fluoride ([2]; listed as Aspartic acid 0,2% in artifical saliva): for 25 units better than fluoride

N[C@@H](CC(=O)O)C(=O)O [Aspartic acid 0,1% in artifical saliva, Aspartic acid]
Comparison: units better than fluoride [2]: for 2 units better than fluoride

N[C@@H](CC(=O)O)C(=O)O [Aspartic acid 0.4 %, Aspartic acid]
Mean %SMHR Value [1]: -91.74% | Mean %SMHR Value ([1]; listed as 0.4% Aspartic acid): -92% | Comparison: units worser than negative control ([2]; listed as Aspartic acid 0,4% in distilled water): for 82 units worser than negative control

Source: patent publication EP4548907A1 (SkyLab AG, priority 2023, dated 2025)
